Experiment: Animal Experiment I, drug administration during obesity induction (high-fat diet)
Type: in vivo, B6 female mice
Details: oral gavage daily, 8 weeks, compared to obesity control group
Method: In this experimental example, 8-week old B6 female mice were experimented and divided into a normal control group, an obesity control group, a resveratrol group (the administered dose of resveratrol was 61.5 mg/kg B.W.), a green tea extract group (the administered dose of green tea extract was 123 mg/kg B.W.), and the plant extract compositions ME001 of the present invention group (the administered dose of ME001 was 676.5 mg/kg B.W.) Five female mice were included in each group for experimentation. During the experimental period, with the exception of the normal control group, the other groups were fed with high-fat diet for eight consecutive weeks to induce obesity symptoms, and were also fed by oral gavage with the test substance daily during the same eight weeks. The obesity control group was fed by oral gavage with an equal volume of sterile water, and the difference in body weight of each group of mice was evaluated. The body weight and average food intake of each animal were recorded weekly during the experimental period. The mice were sacrificed after the experimentation. […] The data of each group are expressed as mean±SD. Letters a, b, and c indicate the results of statistical analysis, wherein different letters indicate significant statistical difference between groups (p<0.05), and identical letters indicate no significant statistical difference between groups (p>0.05).

With `Oc1ccc(C=Cc2cc(O)cc(O)c2)cc1` [resveratrol] as the molecule, how does the “total body weight gain” value read?
The value was “did not show statistical difference”.
